These are literature values, as cited in PMC8466373, “Plant-Derived and Dietary Hydroxybenzoic Acids—A Comprehensive Study of Structural, Anti-/Pro-Oxidant, Lipophilic, Antimicrobial, and Cytotoxic Activity in MDA-MB-231 and MCF-7 Cell Lines” (Nutrients, 2021).

The zone of inhibition is the size of the clear area around the sample on an inoculated plate. Broadly, the MIC is the lowest concentration found to suppress growth. Usually IC50 stands for the midpoint of a concentration-inhibition curve.

Data set [1] deals with Chrysosporium species. To be noted: concentration of 30 mg/mL; cited from earlier work.
The test system of data set [2] is A. flavus. As to conditions: concentration of 30 mg/mL; cited from earlier work.
Data set [3] has as its system monocytes treated with hydrogen peroxide. To be noted: 200 μM; cited from earlier work.
Data set [4] concerns A. niger. To be noted: concentration of 30 mg/mL; cited from earlier work.
The subject of data set [5] is Botrytis cinerea and Rhizopus stolonifer. To be noted: concentration of 5 mM; cited from earlier work.
Data set [6] concerns E. coli, B. aureus, and L. monocytogenes. On the set-up: method as in doi:10.17221/132/2010-CJFS. To be noted: ref 90; cited from earlier work.
The subject of data set [7] is MCF-7. As to conditions: incubation time: 24 h, cited from earlier work.
Data set [8] relates to A2780 cancer cells. As to conditions: incubation time: two days; cited from earlier work.
The subject of data set [9] is MDA-MB-231 cells. The arrangement: method as in PMID 30211078. As to conditions: in 24 h; read-out: IC50, growth of MDA-MB-231 cells; cited from earlier work.

The structures appear in SMILES notation. In brackets after ≈: the same amount, converted by molar mass.

`O=C(O)c1cccc(O)c1O` [2,3-DHB, 2,3-Dihydroxybenzoic acid]: the zone of inhibition in data set [1] is given as 25 mm; in data set [2], 24 mm; in data set [4] it was 22 mm. Also, in [3], the cell survival is recorded as 50%.
Take `O=C(O)c1cc(O)ccc1O` [2,5-DHB, 2,5-dihydroxybenzoic acid]: the “inhibition of spore germination and mycelial growth” value in data set [5] is “completely inhibited”. Further, the minimum inhibitory concentration (MIC) in [6] was 2500 µM (≈ 385 µg/mL).
For `O=C(O)c1cc(O)c(O)c(O)c1` [3,4,5-THB, 3,4,5-trihydroxybenzoic acid], the “cell proliferation of MCF-7, % of control” value in data set [7] (5 μg/mL) was 42.73 % of control. Besides, in data set [7], the “concentration inhibiting 50% of MCF-7 cancer cells” value was 7.5 µg/mL. In addition, the “IC50, A2780 cancer cells” value in data set [8] was 45.25 µg/mL (≈ 266 µM). Moreover, the IC50 in [9] was roughly 150 µM.
